These are literature values, as cited in patent US6830755B2, “Method for relaxing human beings using personal care compositions” (Johnson & Johnson Consumer Companies, Inc., priority 1999, dated 2004).

Structures are written as SMILES.

The series concerns salivary cortisol. Conditions: exposure to fragrance before stressful arithmetic.

Take `Cc1c[nH]c2ccccc12` [skatole]: the “effect on stress induced release of cortisol (in words)” value is “had the opposite effect”.
